Source: patent US20080032989A1, “Method of treating inflammatory diseases using tyroskine kinase inhibitors” (priority 2006, published 2008)
Several values for one entry are separate records, joined by “and”; a condition that tells them apart may be missing. Equal values may be shown once. Entries after “also recorded” stand apart in the source; their conditions may differ. Read-outs that look alike come from different tables or passages of the source.

Assays:
[1] = system: PDGFR; conditions: cited from earlier work
[2] = system: collagen-induced arthritis (CIA) in DBA/1 mice; conditions: for severity of CIA (scores, paw measurements), direct comparison study: CGP53716 daily i.p. from 1 day prior to induction
[3] = I.P. 100 mg/kg, cited from earlier work
[4] = system: FGFR; conditions: literature, cited from earlier work
[5] = system: EGFR, FGFR, insulin receptors, Src, Lyn, PKA and PKC; conditions: clinically relevant concentrations; cited from earlier work
[6] = target: T1, c-Kit (Homo sapiens, UniProt P10721); assay: In vitro c-Kit phosphorylation assay (HTScan c-Kit Kinase Assay); type: biochemical; parameters: purchased Cell Signaling; conditions: 30 minutes, time-resolved fluorescence, FIG. 11A
[7] = system: PDGFR
[8] = target: T1, c-Kit; conditions: Table 5; read-out: Kit Inhibitory Profile (IC50); cited from earlier work
[9] = target: Abl (Homo sapiens, UniProt P00519); conditions: literature; cited from earlier work
[10] = system: established collagen-induced arthritis (CIA) in DBA/1 mice; assay: Treatment of established collagen-induced arthritis (CIA); type: in vivo, mouse
[11] = system: EAE in C57B/6 mice; assay: Experimental autoimmune encephalomyelitis (EAE); type: in vivo, mouse; conditions: 100 mg/kg twice daily vs PBS-vehicle
[12] = system: anti-CII T cells; conditions: mouse, 24 h
[13] = system: splenocytes expressing CII-specific TCR
[14] = system: autoreactive B cell responses in mice with CIA; assay: Synovial array profiling of serum autoantibodies in CIA mice; type: in vivo, mouse; conditions: 100 mg/kg imatinib, day 49 sera
Experimental: M. Synovial array analysis. As described (Robinson, W. H., et al., Nat Med 8:295-301, (2002); Hueber, W., et al., Arthritis Rheum 52:2645-2655, (2005)), 500+ peptides and proteins representing autoantigens were printed on SuperEpoxy slides (TeleChem), arrays were incubated with 1:150 dilutions of mouse sera, followed by Cy3-labeled anti-mouse IgG/M antibody (Jackson Immunoresearch), and scanned using a GenePix 4000B scanner. Median feature intensities for each antigen were calculated from the 4-8 duplicate features representing each antigen.
. A robotic microarrayer was used to produce synovial arrays containing a spectrum of proteins and peptides representing candidate autoantigens in RA and CIA (Robinson, W. H., et al., Nat Med 8:295-301, (2002); Hueber, W., et al., Arthritis Rheum 52:2645-2655, (2005)). Arrays were incubated with 1:150 dilutions of sera, autoantibody binding detected with Cy3-labeled anti-mouse IgG/M, and arrays scanned and median fluorescence for each antigen determined. […]. Cluster and TreeView software was applied to order and display the array reactivity as a heatmap. […]

[15] = system: C1.MC/57.1 mast cells; assay: SCF-stimulated mast cell cytokine production; conditions: 100 ng/mL SCF, 48 hrs, imatinib 1 μM and 5 μM
[16] = target: T2, c-Kit (Mus musculus, UniProt P05532); assay: SCF-induced mast cell signaling, immunoblot and RPP lysate array; type: cell-based; conditions: mast cells
T2 construct: endogenous in cells; host or cells: C1.MC/57.1 mouse mast cell line

[17] = system: synovial fluid monocytes; assay: M-CSF-induced differentiation of RA synovial fluid monocytes to macrophages (morphology); type: cell-based, human; conditions: 5 μM imatinib with M-CSF, 72 hours
Text: H. Macrophage isolation and stimulation. […]. […]

[18] = system: B cells from naïve DBA/1 mice
[19] = mice, cited from earlier work; for trough plasma level: 15 hours after dosing
[20] = rats, oral 50 mg/kg; cited from earlier work
[21] = Table 5, read-out: PDGFR Inhibitory Profile (IC50)
[22] = read-out: IC50 for PDGFbb-induced FLS proliferation (PDGFR), FLS from human RA patient, H3-thymidine incorporation, FIG. 11B
[23] = CII-specific (anti-CII) TCR transgenic, 1 μM
[24] = CII-specific (anti-CII) TCR transgenic, 5 μM
[25] = CII-specific (anti-CII) TCR transgenic, 10 μM
[26] = CII-specific TCR transgenic, 1 μM
[27] = CII-specific TCR transgenic, 5 μM
[28] = CII-specific TCR transgenic, 10 μM
[29] = 0-5 μM imatinib, SCF 10 minutes, immunoblot
[30] = Table 7, read-out: PDGFR Inhibitory profile (with IC50s when available)

T2 sequence (P05532 25-979): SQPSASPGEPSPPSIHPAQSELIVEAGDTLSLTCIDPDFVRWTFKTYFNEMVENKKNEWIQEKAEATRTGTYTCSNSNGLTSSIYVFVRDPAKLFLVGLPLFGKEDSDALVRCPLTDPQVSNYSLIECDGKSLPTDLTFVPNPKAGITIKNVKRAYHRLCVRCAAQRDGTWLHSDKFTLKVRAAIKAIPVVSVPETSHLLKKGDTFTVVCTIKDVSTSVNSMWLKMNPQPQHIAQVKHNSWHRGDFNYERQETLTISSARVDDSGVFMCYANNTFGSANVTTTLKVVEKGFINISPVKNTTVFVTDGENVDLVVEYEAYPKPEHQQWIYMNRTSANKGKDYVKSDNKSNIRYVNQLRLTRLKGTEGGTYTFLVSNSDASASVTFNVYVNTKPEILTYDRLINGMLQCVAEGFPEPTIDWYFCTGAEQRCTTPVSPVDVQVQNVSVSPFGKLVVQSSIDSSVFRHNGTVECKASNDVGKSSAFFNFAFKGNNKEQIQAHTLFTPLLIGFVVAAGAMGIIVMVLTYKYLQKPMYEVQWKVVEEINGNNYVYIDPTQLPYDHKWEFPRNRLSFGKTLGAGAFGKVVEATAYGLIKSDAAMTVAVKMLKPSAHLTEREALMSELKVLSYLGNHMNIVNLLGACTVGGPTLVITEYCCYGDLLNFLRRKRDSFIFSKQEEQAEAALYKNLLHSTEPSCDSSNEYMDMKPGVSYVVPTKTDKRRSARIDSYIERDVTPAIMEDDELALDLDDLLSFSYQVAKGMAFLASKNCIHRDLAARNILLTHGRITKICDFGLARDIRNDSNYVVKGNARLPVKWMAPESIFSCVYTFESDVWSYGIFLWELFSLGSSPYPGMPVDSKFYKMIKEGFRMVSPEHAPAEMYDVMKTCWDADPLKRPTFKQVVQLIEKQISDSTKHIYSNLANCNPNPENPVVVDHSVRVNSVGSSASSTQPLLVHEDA
Chain of Abl (P00519 whole entry, species assumed): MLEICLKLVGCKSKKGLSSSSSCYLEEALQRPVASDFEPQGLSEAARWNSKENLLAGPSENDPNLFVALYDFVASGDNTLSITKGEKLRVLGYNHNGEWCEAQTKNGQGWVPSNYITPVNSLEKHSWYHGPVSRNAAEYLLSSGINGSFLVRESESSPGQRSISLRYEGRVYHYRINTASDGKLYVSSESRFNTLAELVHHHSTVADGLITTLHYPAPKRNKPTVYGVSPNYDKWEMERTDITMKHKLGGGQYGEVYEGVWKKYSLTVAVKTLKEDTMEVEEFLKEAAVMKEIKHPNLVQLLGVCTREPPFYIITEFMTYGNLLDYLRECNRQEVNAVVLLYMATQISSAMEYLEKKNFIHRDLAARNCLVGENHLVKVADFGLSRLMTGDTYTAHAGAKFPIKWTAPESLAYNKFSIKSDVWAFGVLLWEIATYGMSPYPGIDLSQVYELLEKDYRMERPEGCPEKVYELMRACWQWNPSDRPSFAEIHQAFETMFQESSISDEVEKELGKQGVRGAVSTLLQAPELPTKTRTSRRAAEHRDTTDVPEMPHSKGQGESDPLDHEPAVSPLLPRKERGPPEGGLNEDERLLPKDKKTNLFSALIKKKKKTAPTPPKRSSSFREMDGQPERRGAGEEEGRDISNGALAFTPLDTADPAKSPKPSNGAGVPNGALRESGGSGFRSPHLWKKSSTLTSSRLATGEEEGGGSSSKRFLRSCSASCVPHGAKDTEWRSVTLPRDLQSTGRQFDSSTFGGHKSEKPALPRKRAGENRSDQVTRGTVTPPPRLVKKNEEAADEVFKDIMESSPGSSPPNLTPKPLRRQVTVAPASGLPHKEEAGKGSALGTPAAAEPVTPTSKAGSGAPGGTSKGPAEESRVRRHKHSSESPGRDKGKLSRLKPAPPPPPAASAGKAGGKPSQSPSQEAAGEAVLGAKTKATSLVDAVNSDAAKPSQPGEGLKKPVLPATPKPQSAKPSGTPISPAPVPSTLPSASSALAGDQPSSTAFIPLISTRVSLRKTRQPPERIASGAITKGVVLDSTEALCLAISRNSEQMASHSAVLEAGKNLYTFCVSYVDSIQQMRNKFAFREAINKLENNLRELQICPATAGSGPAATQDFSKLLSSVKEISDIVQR

CC1(C)CNc2cc(NC(=O)c3cccnc3NCc3ccncc3)ccc21 [AMG 706]
PDGFR Inhibitory profile (with IC50s when available) ([1]; Table 7): potent

CC(C)c1c(C(=O)Nc2ccccc2)c(-c2ccccc2)c(-c2ccc(F)cc2)n1CC[C@@H](O)C[C@@H](O)CC(=O)O [Atorvastatin]
clinical scores of CIA ([2]; atorvastatin alone, 1.25 to 20 mg/kg, FIG. 16B): not effective at decreasing the clinical scores of CIA

Cc1ccc(NC(=O)c2ccccc2)cc1Nc1nccc(-c2cccnc2)n1 [CGP53716]
plasma level ([3]; 8 hours after dosing): 1600 nM | plasma level ([3]; 24 hours after dosing): 1900 nM | IC50 [4]: 1100 nM | inhibition of other kinases including EGFR, FGFR, insulin receptors, Src, Lyn, PKA and PKC [5]: does not inhibit other kinases at clinically relevant concentrations | severity of CIA (scores, paw measurements), direct comparison study ([2]; FIG. 13C-13D): statistically significant reductions in the severity of CIA | efficacy at preventing and treating CIA relative to imatinib ([2]; FIG. 13C-13D): nearly as effective as imatinib | IC50 [6]: 2 nM | IC50 [1, 21]: […] | IC50 [7, 22]: […] | IC50 [8]: < 1000 nM | IC50 [9]: 600 nM

COc1cc2c(Oc3ccc4[nH]c(C)cc4c3F)ncnc2cc1OCCCN1CCCC1 [Cediranib]
PDGFR Inhibitory profile (with IC50s when available) ([1]; Table 7): potent?

COc1ccc(COc2ccc(Cc3cnc(N)nc3N)cc2OC)cc1 [GW2580]
severity of established CIA (mean visual arthritis score, paw thickness) ([10]; 50 mg/kg for 5 days vs vehicle): highly effective at treating established collagen-induced arthritis; also recorded: reduced the severity of arthritis | IC50 [7, 22]: 4300 nM and 4350 nM | IC50 ([7]; read-out: PDGFR Inhibitory Profile (IC50), Table 5, value referenced to FIG. 11): 4300 nM

Cc1ccc(NC(=O)c2ccc(CN3CCN(C)CC3)cc2)cc1Nc1nccc(-c2cccnc2)n1 [Imatinib]
progression of established arthritis (visual score, mean paw thickness) ([10]; 33 and 100 mg/kg, p<0.05 after 10 days of treatment): inhibited the progression of established arthritis | histopathology: synovitis, pannus, and erosion scores ([10]; treatment of established CIA, 33 and 100 mg/kg, p<0.05): statistically significant reductions in synovitis, pannus, and erosion scores | onset and severity of EAE [11]: a delay in the onset and reduced severity of EAE | Early apoptosis (PI− AnnV+) [12, 23]: 3.8% | Late apoptosis (PI+ AnnV+) [12, 23]: 0.6% | Early apoptosis (PI− AnnV+) [12, 24]: 5.2% | Late apoptosis (PI+ AnnV+) [12, 24]: 1.2% | Early apoptosis (PI− AnnV+) [12, 25]: 6.2% | Late apoptosis (PI+ AnnV+) [12, 25]: 0.9% | Early apoptosis (PI− AnnV+) [12, 26]: 4.6% | Late apoptosis (PI+ AnnV+) [12, 26]: 1.1% | Live cells (PI− AnnV−) [12, 26]: 95.5% | Early apoptosis (PI− AnnV+) [12, 27]: 5.3% | Late apoptosis (PI+ AnnV+) [12, 27]: 0.7% | Live cells (PI− AnnV−) [12, 27]: 93.6% | Early apoptosis (PI− AnnV+) [12, 28]: 6.6% | Late apoptosis (PI+ AnnV+) [12, 28]: 0.9% | Live cells (PI− AnnV−) [12, 28]: 93.7% | Early apoptosis (PI− AnnV+) ([12]; anti-CII TCR transgenic, 1 μM): 3.4% | Late apoptosis (PI+ AnnV+) ([12]; anti-CII TCR transgenic, 1 μM): 0.5% | Early apoptosis (PI− AnnV+) ([12]; anti-CII TCR transgenic, 5 μM): 5.9% | Late apoptosis (PI+ AnnV+) ([12]; anti-CII TCR transgenic, 5 μM): 0.8% | Early apoptosis (PI− AnnV+) ([12]; anti-CII TCR transgenic, 10 μM): 6.1% | Late apoptosis (PI+ AnnV+) ([12]; anti-CII TCR transgenic, 10 μM): 0.9% | CIA efficacy compared to PBS vehicle-control ([2]; 15 mg/kg imatinib, FIG. 16A): relatively little efficacy | severity of CIA (mean visual arthritis score, mean paw thickness) ([2]; 33 or 100 mg/kg orally twice-daily from 1 day prior to induction, p<0.01 after day 38): significant reductions in the severity of CIA | incidence of CIA ([2]; 33 or 100 mg/kg orally twice-daily, day 49): reduced the incidence of CIA | severity of CIA (scores, paw measurements), direct comparison study ([2]; FIG. 13C-13D): statistically significant reductions in the severity of CIA | histopathology: synovitis, pannus, and erosion scores ([2]; CIA prevention study, 33 and 100 mg/kg, p<0.01 synovitis and erosion, p<0.05 pannus): statistically significant reductions in synovitis, pannus, and erosion scores | production of IFN-γ and TNFα by CII-stimulated TCR transgenic T cells ([13]; CII 20 μg/mL, 3.3 μM imatinib): moderate reduction | production of IFN-gamma, IL-4, and TNFα by CII-stimulated TCR transgenic T cells ([13]; CII 20 μg/mL, 10 μM imatinib): further reduced production | anti-CII T cell production of IL-2 ([13]; any imatinib concentration tested): not significantly reduced | expansion (epitope spreading) of autoreactive B cell responses [14]: reduced expansion of autoreactive B cell responses | mast cell production of TNFα, GM-CSF, and IL-6 [15]: dramatically reduced mast cell production of TNFα, GM-CSF, and IL-6 | SCF-induced phosphorylation of c-Kit [16, 29]: potently inhibited SCF-induced phosphorylation of c-Kit | phosphorylation of downstream Akt (Ser 473) [16, 29]: corresponding reduction in phosphorylation of downstream Akt (Ser 473) | SCF-induced activation of kinases downstream of c-Kit (ERK, JNK, p38), RPP array ([16]; 1 and 5 μM imatinib): inhibited SCF-induced activation of diverse protein tyrosine kinases downstream of c-Kit | differentiation of synovial fluid monocytes into macrophages (morphology) [17]: blocked the differentiation of synovial fluid monocytes from human RA patients into macrophages | IgM production by LPS-stimulated B cells ([18]; imatinib 1 μM): mildly reduced | IgM production by LPS-stimulated B cells ([18]; imatinib 10 μM): most significant reduction

Cc1cn(-c2cc(NC(=O)c3ccc(C)c(Nc4nccc(-c5cccnc5)n4)c3)cc(C(F)(F)F)c2)cn1 [Nilotinib]
IC50 [1, 30]: 1 nM

Cn1c(=O)c(-c2c(Cl)cccc2Cl)cc2cnc(Nc3cccc(CO)c3)nc21 [PD166326]
trough plasma level ([19]; 25 mg/kg): approximately 0.005 μM | peak plasma level ([19]; 25 mg/kg): 0.026 µM | trough plasma level ([19]; 50 mg/kg): ~0.018 µM | peak plasma level ([19]; 50 mg/kg): 0.098 µM

Cc1[nH]c(/C=C2\C(=O)Nc3ccccc32)c(C)c1CCC(=O)O [SU6668]
IC50 [1, 30]: 10 nM

Cc1[nH]c(/C=C2\C(=O)Nc3ccc(Br)cc32)c(C)c1CCC(=O)O [SU9518]
IC50 ([4]; unit inferred): 4400 nM | IC50 [1, 21]: 50 nM | IC50 ([1]; literature, read-out: IC50 PDGFR (PDGFRα/β)): 53 nM | peak plasma level [20]: 1.76 µM | plasma level 8 hours after dosing [20]: above 1 μM

CNC(=O)c1cc(Oc2ccc(NC(=O)Nc3ccc(Cl)c(C(F)(F)F)c3)cc2)ccn1 [Sorafenib]
PDGFR Inhibitory profile (with IC50s when available) ([1]; Table 6): potent
